Tests used:
Ruminal VFA = experiment: In vivo ruminal VFA test in fistulated non-lactating lambs; design: species or system sheep; conditions: 15 g/ton in feed
Method: Two groups of fistulated lambs are allowed slightly more than their normal feed ration for 17 days. Test compound is administered to one group in the feed on a g/ton basis.
The rumen fluids of both groups of animals are sampled on days 3, 7, 10, 14 and 17 of the treatment period.
The fermentation of the ruminal samples is halted by addition of meta-phosphoric acid. Each sample is diluted, centrifuged at 2000×gravity for 10 minutes; the supernatants are analyzed for volatile fatty acids via the gas chromatographic method of E. S. Erwin, G. J. Marco and E. M. Emery in J. Dairy Sci., 44, 1768 […]. Molar percentages of ruminal volatile fatty acids are calculated, and the effect is measured as a comparison of the molar percentages of propionic acid and butyric acid in treated animals to those in contemporary controls. The results of the test are presented below in Tables II and III.

[1] = test system: Ruminal VFA (rumen fluid); experiment: In vitro rumen fluid fermentation test, ratio of VFA in treated to control flasks; design: species or system steer; conditions: 16 hours at 38° C
From the text: As previously noted, a preferred method for improving milk production in lactating ruminants comprises the oral administration of the virginiamycin type antibiotic A-2315. […] Rumen fluid is obtained from a steer with a surgically-installed fistula opening into the rumen. The steer is maintained on a high-grain ration, the composition of which follows: A sample of rumen fluid is strained through four layers of cheesecloth, and the filtrate is collected. The particulate matter retained by the cheesecloth is resuspended in enough physiological buffer to return it to the original volume of the rumen fluid, and this suspension is strained again. The buffer used has the following composition: The two filtrates are combined and allowed to stand until particulate matter separates to the top. The clear layer is separated, diluted with the same buffer (1:1) and then adjusted to pH 7.0. The diluted rumen fluid (10 ml.) is placed in a 25-ml flask with 40 mg. of the above-described feed, an additional 5 mg. of soybean protein, and the test compound. Four replicate flasks are used per treatment. Two sets of four control flasks each are also employed. A zero-time control and an incubated 16-hour control are used. All test flasks are incubated for 16 hours at 38° C. After incubation, 25 percent metaphosphoric acid (2 ml.) is added to each flask. The samples are allowed to settle, and the supernatant is analyzed by gas chromatography for propionate, acetate, and butyrate compounds. Test compound results are statistically compared with control results.

dairy cows = conditions: all administration rates evaluated; cited from earlier work
[2] = molar percentage of ruminal VFA, 17 days
[3] = 0.1 mcg per ml diluted rumen fluid
[4] = 0.3 mcg per ml diluted rumen fluid
[5] = 1.0 mcg per ml diluted rumen fluid

| Compound | Butyric acid, Increase Relative to Control (Ruminal VFA) | Propionic acid, Increase Relative to Control (Ruminal VFA) | Butyric acid, Change from Control (Ruminal VFA; control 11.1) | Propionic acid, Change from Control (Ruminal VFA; control 26.2) | % Butyric Acid Conc. (Ruminal VFA; [2]) | % Propionic Acid Conc. (Ruminal VFA; [2]) | Acetate, ratio of VFA concentration in treated flasks to control flasks [1, 3] | Butyrate, ratio of VFA concentration in treated flasks to control flasks [1, 3] | Propionate, ratio of VFA concentration in treated flasks to control flasks [1, 3] | Total VFA, ratio of concentration in treated flasks to control flasks [1, 3] | Acetate, ratio of VFA concentration in treated flasks to control flasks [1, 4] | Butyrate, ratio of VFA concentration in treated flasks to control flasks [1, 4] | Propionate, ratio of VFA concentration in treated flasks to control flasks [1, 4] | Total VFA, ratio of concentration in treated flasks to control flasks [1, 4] | Acetate, ratio of VFA concentration in treated flasks to control flasks [1, 5] | Butyrate, ratio of VFA concentration in treated flasks to control flasks [1, 5] | Propionate, ratio of VFA concentration in treated flasks to control flasks [1, 5] | Total VFA, ratio of concentration in treated flasks to control flasks [1, 5] | fat-corrected-milk production (dairy cows) |
| --- | --- | --- | --- | --- | --- | --- | --- | --- | --- | --- | --- | --- | --- | --- | --- | --- | --- | --- | --- |
| CC1=C\[C@@H](O)C[C@@H](O)Cc2nc(co2)C(=O)N[C@H](C)C(=O)O[C@H](C(C)C)[C@H](C)/C=C/C(=O)NC\C=C\1 [A-2315 Factor A] | 21.6% | 18.2% | 2.4 | 4.8 | 13.5% | 31.0% | 0.97 | 1.01 | 1.07 | 1.04 | 0.95 | 1.00 | 1.08 | 1.07 | 0.95 | 1.04 | 1.15 | 1.05 | – |
| CC[C@@]1([C@@H]2O[C@@H]([C@H]3O[C@@](O)(CO)[C@H](C)C[C@@H]3C)C[C@@H]2C)CC[C@H]([C@]2(C)CC[C@]3(C[C@H](O)[C@@H](C)[C@@H]([C@@H](C)[C@@H](OC)[C@H](C)C(=O)O)O3)O2)O1 [Monensin] | – | – | – | – | – | – | – | – | – | – | – | – | – | – | – | – | – | – | no different from that of non-treated control animals |

Source: patent publication US4336250A, “Lactation improvement method” (Eli Lilly and Company, priority 1981, dated 1982)
